The source of these data is article PMC6982996, “Discovery of [1,2,4]Triazole Derivatives as New Metallo-β-Lactamase Inhibitors” (Molecules, 2019).

A value given as a limit tells only on which side of the number the result lay.

Common to all, as to type: biochemical
One assay addresses T1, IMP-1 (Serratia marcescens, UniProt P52699).
T1 construct: Li's Laboratory, Sichuan University (collaborator, a gift and not a purchase)
Description: IMP-1 inhibition assay (FC5 fluorogenic substrate). The note with it: for inhibition at 10 µM / inhibition at 100 µM: mean ± SD (n = 3); for IC50: 10 concentrations in threefold dilution, triplicate, read-out: IC50 against IMP-1. As to the method:
(§1) Then, we tested all the target compounds against other B1 MBL enzymes, including NDM-1, IMP-1, VIM-1, and VIM-5 (Table 1); all the assay conditions (including enzyme/substrate concentrations) are the same as that previously used. […]. […].
(§2) All the target compounds were freshly prepared in 100 mM DMSO stock solutions. All the MBL and SBL enzymes used in this study were obtained from our collaborator, Li’s Laboratory in Sichuan University. Each compound was initially evaluated for inhibitory activity to MBL and SBL enzymes at 100 and 10 μM, by preincubation with the appropriate amount of enzymes in the assay buffer for 10 min, followed by adding the substrate FC5 to initiate the reactions, and monitoring the fluorescence at λex of 380 nm and λem of 460 nm. The IC50 values for the compounds (with 10 different concentrations in threefold dilution) were further determined. All determinations were tested in triplicate. The IC50 values were obtained from the plot of activity versus inhibitor concentration by using the GraphPad Prism software.

The next assay deals with T2, NDM-1 (Klebsiella pneumoniae, UniProt C7C422).
T2 construct: Li's Laboratory, Sichuan University (collaborator, a gift and not a purchase)
T2 sequence (C7C422 29-270, looked up, species assumed): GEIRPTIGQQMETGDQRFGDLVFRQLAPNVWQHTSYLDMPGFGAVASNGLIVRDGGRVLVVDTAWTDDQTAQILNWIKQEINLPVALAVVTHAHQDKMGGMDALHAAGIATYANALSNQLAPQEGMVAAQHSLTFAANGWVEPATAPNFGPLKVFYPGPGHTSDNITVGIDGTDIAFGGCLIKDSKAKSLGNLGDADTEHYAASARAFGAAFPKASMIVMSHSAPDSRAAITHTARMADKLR
Description: NDM-1 inhibition assay (FC5 fluorogenic substrate). Conditions: mean ± SD (n = 3). As to the method: as §1, §2

A further assay deals with VIM-5. Kind of assay: VIM-5 inhibition assay (FC5 fluorogenic substrate). Conditions: mean ± SD (n = 3). How it is done:
as §1, §2

The target of another assay is T3, VIM-2 (Escherichia coli, UniProt Q5U7L7).
T3 construct: Li's Laboratory, Sichuan University (collaborator, a gift and not a purchase)
Description: VIM-2 inhibition assay (FC5 fluorogenic substrate). Conditions: for IC50: 10 concentrations in threefold dilution, triplicate, read-out: IC50 against VIM-2; for inhibition at 10 µM / inhibition at 100 µM: mean ± SD (n = 3). How it is done:
as §2

The next assay addresses T4, VIM-1 (Pseudomonas aeruginosa, UniProt A0A0F7KYQ8).
T4 construct: Li's Laboratory, Sichuan University (collaborator, a gift and not a purchase)
Kind of assay: VIM-1 inhibition assay (FC5 fluorogenic substrate). As to the method: as §1, §2

T1 sequence (P52699 19-246 limits assumed): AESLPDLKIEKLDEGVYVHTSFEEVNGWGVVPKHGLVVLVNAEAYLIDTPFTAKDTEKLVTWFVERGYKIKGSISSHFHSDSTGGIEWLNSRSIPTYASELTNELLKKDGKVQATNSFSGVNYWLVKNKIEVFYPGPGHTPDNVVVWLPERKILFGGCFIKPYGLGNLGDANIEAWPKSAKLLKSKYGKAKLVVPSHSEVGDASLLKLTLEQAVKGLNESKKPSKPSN

With `FC(F)(F)c1cccc(-c2nnc3n2CCCS3)c1` [5i, 3-(3-(Trifluoromethyl)phenyl)-6,7-dihydro-5H-[1,2,4]triazolo[3,4-b][1,3]thiazine], the inhibition (in general, how much of the control response was suppressed) at 10 µM against IMP-1 was 11%; on NDM-1, 9%; at VIM-2 it was 35%. Besides, the inhibition at 100 µM was determined as 12 ± 1% against IMP-1, 26 ± 1% against NDM-1, 52 ± 4% at VIM-2 and 29 ± 3% against VIM-1 (mean ± SD (n = 3)). In the assay with VIM-5 (@ 100 μM), the “Inhibition % VIM-5” value was 21 ± 2/– %. Moreover, the IC50 (in general, the concentration at which inhibition is half-maximal) on VIM-2 is greater than 100 µM.
As to `Cc1ccccc1-c1nnc2n1CCCS2` [5b, 3-(O-Tolyl)-6,7-dihydro-5H-[1,2,4]triazolo[3,4-b][1,3]thiazine], the inhibition at 10 µM against IMP-1 was 21%; against NDM-1, 27%; against VIM-2 it was 34%. Further, the inhibition at 100 µM was found to be 25 ± 1% at IMP-1, 32 ± 4% on NDM-1, 45 ± 5% on VIM-2 and 21 ± 3% against VIM-1 (mean ± SD (n = 3)). For the same molecule, the “Inhibition % VIM-5” value in the assay with VIM-5 (@ 100 μM) is listed as 12 ± 2/– %.
On to `c1ccc(Cc2nnc3n2CCCS3)cc1` [5r, 3-Benzyl-6,7-dihydro-5H-[1,2,4]triazolo[3,4-b][1,3]thiazine], for which the values for the inhibition at 10 µM against NDM-1 and against VIM-2 were 9% and 6%, respectively. In addition, the inhibition at 100 µM against NDM-1 is 4 ± 1%; at VIM-2, 21 ± 3%; at VIM-1 (mean ± SD (n = 3)), 25 ± 2%. In addition, the “Inhibition % VIM-5” value in the assay on VIM-5 (@ 100 μM) is listed as 8 ± 1/– %.
As to `c1csc(-c2nnc3n2CCCS3)c1` [10b, 3-(Thiophen-2-yl)-6,7-dihydro-5H-[1,2,4]triazolo[3,4-b][1,3]thiazine], the IC50 on IMP-1 was greater than 100 µM. For the same molecule, the inhibition at 10 µM is 27% against IMP-1; 8% at NDM-1; 16% at VIM-2; 32% against VIM-1 (@ 10 μM, mean ± SD (n = 3)). For the same molecule, the inhibition at 100 µM on IMP-1 worked out at 57 ± 6%; on NDM-1, 12 ± 2%; at VIM-2, 30 ± 3%; against VIM-1 (mean ± SD (n = 3)) it was 30 ± 2%. The “Inhibition % VIM-5” value in the assay with VIM-5 (@ 10 μM) is 21 ± 2%; in the assay on VIM-5 (@ 100 μM), 18 ± 2%.
`Brc1ccccc1-c1nnc2n1CCCS2` [5c, 3-(2-Bromophenyl)-6,7-dihydro-5H-[1,2,4]triazolo[3,4-b][1,3]thiazine]: the inhibition at 10 µM is 16% at IMP-1, 17% on NDM-1 and 26% against VIM-2. Moreover, the inhibition at 100 µM is 15 ± 1% on IMP-1, 8 ± 1% against NDM-1, 43 ± 5% against VIM-2 and 19 ± 2% at VIM-1 (mean ± SD (n = 3)). Besides, in the assay on VIM-5 (@ 100 μM), the “Inhibition % VIM-5” value is on record as 13 ± 2/– %.
For `O=C(O)c1ccccc1-c1nnc2n1CCCS2` [compound 14, 2-(6,7-Dihydro-5H-[1,2,4]triazolo[3,4-b][1,3]thiazin-3-yl)benzoic acid], the inhibition at 10 µM against IMP-1 is 18%; against NDM-1, 10%; on VIM-2, 21%. For the same molecule, the inhibition at 100 µM was 15 ± 2% on IMP-1, 7 ± 1% against NDM-1, 26 ± 2% against VIM-2 and 22 ± 3% against VIM-1 (mean ± SD (n = 3)). In the assay with VIM-5 (@ 100 μM), the “Inhibition % VIM-5” value is 11 ± 1/– %.
As to `O=C(O)c1ccccc1-c1nnc2n1C(=O)CS2` [compound 15, 2-(5-Oxo-5,6-dihydrothiazolo[2,3-c][1,2,4]triazol-3-yl)benzoic acid], the values for the inhibition at 10 µM against IMP-1, at NDM-1 and against VIM-2 were 19%, 10% and 18%, respectively. Further, the inhibition at 100 µM at IMP-1 turned out to be 13 ± 1%; on NDM-1, 8 ± 1%; on VIM-2, 21 ± 2%; against VIM-1 (mean ± SD (n = 3)), 25 ± 2%. Moreover, in the assay with VIM-5 (@ 100 μM), the “Inhibition % VIM-5” value is on record as 10 ± 2/– %.
On to `Fc1cccc(-c2nnc3n2CCCS3)c1` [5e, 3-(3-Fluorophenyl)-6,7-dihydro-5H-[1,2,4]triazolo[3,4-b][1,3]thiazine], for which the inhibition at 10 µM against IMP-1 is 4%; at NDM-1 it was 20%; against VIM-2, 15%. Moreover, the inhibition at 100 µM against IMP-1 is 8 ± 1%; against NDM-1, 10 ± 2%; on VIM-2, 34 ± 3%; against VIM-1 (mean ± SD (n = 3)), 22 ± 3%. In addition, the “Inhibition % VIM-5” value with VIM-5 (@ 100 μM) is on record as 6 ± 1/– %.
Consider `c1ccc(-c2nnc3n2CCCS3)cc1` [5a, 3-Phenyl-6,7-dihydro-5H-[1,2,4]triazolo[3,4-b][1,3]thiazine], for which the inhibition at 10 µM against NDM-1 was 3%; on VIM-2 it was 17%. The inhibition at 100 µM against NDM-1 was 29 ± 1%; at VIM-2 it was roughly 50%; on VIM-1 (mean ± SD (n = 3)), 29 ± 2%. Moreover, the “Inhibition % VIM-5” value with VIM-5 (@ 100 μM) is listed as 1 ± 1/– %. Also, on VIM-2, the IC50 is roughly 179 µM.
With `c1coc(-c2nnc3n2CCCS3)c1` [10a, 3-(Furan-2-yl)-6,7-dihydro-5H-[1,2,4]triazolo[3,4-b][1,3]thiazine], the inhibition at 10 µM is 6% on IMP-1, 16% at NDM-1 and 22% at VIM-2. In addition, the inhibition at 100 µM against IMP-1 was found to be 5 ± 1%; against NDM-1, 15 ± 1%; against VIM-2 it was 32 ± 4%; on VIM-1 (mean ± SD (n = 3)), 24 ± 3%. Further, the “Inhibition % VIM-5” value in the assay with VIM-5 (@ 100 μM) is 11 ± 1/– %.
For the molecule `Ic1cccc(-c2nnc3n2CCCS3)c1` [5h, 3-(3-Iodophenyl)-6,7-dihydro-5H-[1,2,4]triazolo[3,4-b][1,3]thiazine], the results for the inhibition at 10 µM on NDM-1 and at VIM-2 were 10% and 7%, respectively. For the same molecule, the inhibition at 100 µM against NDM-1 was 9 ± 1%; against VIM-2, 33 ± 2%; at VIM-1 (mean ± SD (n = 3)), 27 ± 3%. Moreover, the “Inhibition % VIM-5” value in the assay on VIM-5 (@ 100 μM) is reported as −5 ± 2/– %.
With `CC(C)(C)c1ccc(-c2nnc3n2CCCS3)cc1` [5o, 3-(4-(Tert-butyl)phenyl)-6,7-dihydro-5H-[1,2,4]triazolo[3,4-b][1,3]thiazine], the IC50 at IMP-1 was greater than 100 µM. Moreover, the inhibition at 10 µM is 15% against IMP-1, 9% at NDM-1 and 22% at VIM-2. The inhibition at 100 µM on IMP-1 worked out at 63 ± 1%; against NDM-1 it was 11 ± 1%; on VIM-2, 23 ± 4%; on VIM-1 (mean ± SD (n = 3)), 27 ± 2%. Also, the “Inhibition % VIM-5” value with VIM-5 (@ 100 μM) is 15 ± 1/– %.
On to `FC(F)(F)c1ccc(-c2nnc3n2CCCS3)cc1` [5n, 3-(4-(Trifluoromethyl)phenyl)-6,7-dihydro-5H-[1,2,4]triazolo[3,4-b][1,3]thiazine], for which the inhibition at 10 µM was 3% against NDM-1 and 43% against VIM-2. Moreover, the inhibition at 100 µM is 8 ± 1% against NDM-1, 82 ± 4% at VIM-2 and 61 ± 3% on VIM-1 (mean ± SD (n = 3)). The “Inhibition % VIM-5” value with VIM-5 (@ 100 μM) is −10 ± 2/– %. Moreover, the IC50 was 53.2 µM on VIM-2 and greater than 100 µM at VIM-1 (10 concentrations in threefold dilution, triplicate, read-out: IC50 against VIM-1).
For the molecule `Ic1ccc(-c2nnc3n2CCCS3)cc1` [5m, 3-(4-Iodophenyl)-6,7-dihydro-5H-[1,2,4]triazolo[3,4-b][1,3]thiazine], on NDM-1, the inhibition at 10 µM was 4% and the inhibition at 100 µM came out at 1 ± 1%. Also, in the assay with VIM-5 (@ 100 μM), the “Inhibition % VIM-5” value was 2 ± 1/– %. Further, at VIM-2, the IC50 is greater than 100 µM, the inhibition at 10 µM is 44% and the inhibition at 100 µM came out at 78 ± 5%. At VIM-1 (mean ± SD (n = 3)), this molecule displayed an inhibition at 100 µM of 34 ± 1%.
On NDM-1, `CC(=O)Nc1ccc(Nc2ccc(-c3nnc4n3CCCS4)cc2)cc1` [5t, N-(4-((4-(6,7-dihydro-5H-[1,2,4]triazolo[3,4-b][1,3]thiazin-3-yl)phenyl)amino)phenyl)acetamide] gave an inhibition at 10 µM of 13% and an inhibition at 100 µM of 23 ± 2%. The “Inhibition % VIM-5” value in the assay with VIM-5 (@ 100 μM) was 31 ± 2/– %. On VIM-2, the IC50 is greater than 100 µM, testing at 10 µM gave an inhibition of 40% and at 100 µM the inhibition was 75 ± 4%. In addition, the inhibition at 100 µM against VIM-1 (mean ± SD (n = 3)) was 14 ± 2%.
In the case of `Clc1cccc(-c2nnc3n2CCCS3)c1` [5f, 3-(3-Chlorophenyl)-6,7-dihydro-5H-[1,2,4]triazolo[3,4-b][1,3]thiazine], the results for the inhibition at 10 µM against NDM-1 and against VIM-2 were 22% and 16%, respectively. Moreover, the inhibition at 100 µM against NDM-1 came to 17 ± 1%; at VIM-2, 42 ± 2%; against VIM-1 (mean ± SD (n = 3)), 32 ± 1%. Also, the “Inhibition % VIM-5” value in the assay with VIM-5 (@ 100 μM) is listed as −9 ± 2/– %.
For the molecule `COc1ccccc1-c1nnc2n1CCCS2` [5d, 3-(2-Methoxyphenyl)-6,7-dihydro-5H-[1,2,4]triazolo[3,4-b][1,3]thiazine], the inhibition at 10 µM is 6% against NDM-1 and 16% against VIM-2. Besides, the inhibition at 100 µM worked out at 15 ± 1% on NDM-1, 39 ± 3% against VIM-2 and 27 ± 2% on VIM-1 (mean ± SD (n = 3)). For the same molecule, in the assay with VIM-5 (@ 100 μM), the “Inhibition % VIM-5” value is given as 7 ± 1/– %.
